Laboratory results taken from patent US4100346A, “Certain 7(o-amino-methyl- or methylaminomethylphenyl- or cyclohexadienyl- or thienylacetamide)-3[1-carboxymethyl-(or ethyl- or propyl-)-tetrazol-5-ylthiomethyl]-3-cephem-4-carboxylic acids” (Bristol-Myers Company, priority 1976, dated 1978).
≈ marks a conversion by molar mass, not a printed value. Where two headings read alike, the source gives them in different places.

What was measured:
Serratia marcescens = assay: Growth inhibitory activity, antibiotic dilution technique; settings: read-out: Minimum inhibitory concentration
Alcaligenes sp. = assay: as above
Enterobacter aerogenes = assay: Minimum growth inhibitory and bactericidal concentrations for Enterobacteriaceae; assay type: cell-based; settings: Klebsiella aerogenes, inoculum 10^4 cells; for MBC: read-out: MBC, minimum bactericidal concentration; for MIC: read-out: MIC, Minimum growth inhibitory concentration
Text: (§1) Miscellaneous. Methods for determining bactericidal activity and susceptibility to cell-free β-lactamase were those previously used; Leitner et al., BL-S640, A Cephalosporin With a Broad Spectrum of Antibacterial Activity: Properties in vitro, Antimicrob. Agents Chemother. 7:298-305 (1975).
(§2) *MIC, Minimum growth inhibitory concentration; MBC, minimum bactericidal
(§3) concentration; expressed as micrograms per milliliter. The inoculum was […]

Enterobacter cloacae = assay: as above; assay type: cell-based; settings: for MBC: read-out: MBC, minimum bactericidal concentration; for MIC: read-out: MIC, Minimum growth inhibitory concentration
Text: as §1, §2, §3

Proteus rettgeri [1] = assay: as above; assay type: cell-based; settings: Providencia rettgeri, inoculum 10^4 cells; for MBC: read-out: MBC, minimum bactericidal concentration; for MIC: read-out: MIC, Minimum growth inhibitory concentration
Text: as §1, §2, §3

Klebsiella pneumoniae [2] = assay: as above; assay type: cell-based; settings: for MBC: read-out: MBC, minimum bactericidal concentration; for MIC: read-out: MIC, Minimum growth inhibitory concentration
Text: as §1, §2, §3

Proteus mirabilis = assay: as above; assay type: cell-based; settings: for MBC: read-out: MBC, minimum bactericidal concentration; for MIC: read-out: MIC, Minimum growth inhibitory concentration
Text: as §1, §2, §3

Escherichia coli = assay: as above; assay type: cell-based; settings: for MBC: read-out: MBC, minimum bactericidal concentration; for MIC: read-out: MIC, Minimum growth inhibitory concentration
Text: as §1, §2, §3

Proteus vulgaris = assay: as above; assay type: cell-based; settings: Proteus vulgaris, inoculum 10^4 cells; for MBC: read-out: MBC, minimum bactericidal concentration; for MIC: read-out: MIC, Minimum growth inhibitory concentration
Text: as §1, §2, §3

in vivo = settings: mouse, im
Arizona hinshawii = assay: Growth inhibitory activity, antibiotic dilution technique; settings: Salmonella enterica, read-out: Minimum inhibitory concentration
Providencia stuartii = assay: as above
Klebsiella pneumoniae [3] = assay: Effect of inoculum size on susceptibility of Enterobacteriaceae
Proteus rettgeri [4] = assay: as above; settings: Providencia rettgeri
[5] = Enterobacter aerogenes strain 1
[6] = Enterobacter aerogenes strain 2
[7] = Enterobacter aerogenes strain 3
[8] = Enterobacter cloacae strain 3, inoculum 10^4 cells
[9] = Enterobacter cloacae strain 4, inoculum 10^4 cells
[10] = Enterobacter cloacae strain 8, inoculum 10^4 cells
[11] = Klebsiella pneumoniae strain 1, inoculum 10^4 cells
[12] = Klebsiella pneumoniae strain 2, inoculum 10^4 cells
[13] = Klebsiella pneumoniae strain 3, inoculum 10^4 cells
[14] = Klebsiella pneumoniae strain 4, inoculum 10^4 cells
[15] = Klebsiella pneumoniae strain 5, inoculum 10^4 cells
[16] = Klebsiella pneumoniae strain 6, inoculum 10^4 cells
[17] = Proteus mirabilis strain 1, inoculum 10^4 cells
[18] = Proteus mirabilis strain 2, inoculum 10^4 cells
[19] = Proteus mirabilis strain 3, inoculum 10^4 cells
[20] = Proteus mirabilis strain 4, inoculum 10^4 cells
[21] = Proteus mirabilis strain 5, inoculum 10^4 cells
[22] = Escherichia coli strain 1, inoculum 10^4 cells
[23] = Escherichia coli strain 2, inoculum 10^4 cells
[24] = Escherichia coli strain 3, inoculum 10^4 cells
[25] = Escherichia coli strain 4, inoculum 10^4 cells
[26] = Escherichia coli strain 5, inoculum 10^4 cells
[27] = Escherichia coli strain 6, inoculum 10^4 cells

SMILES: CC(=O)OCC1=C(C(=O)O)N2C(=O)[C@@H](NC(=O)Cc3cccs3)[C@H]2SC1 [Cephalothin]
- MIC (Serratia marcescens): > 125 µg/mL
- MIC (Alcaligenes sp.; read-out: Minimum inhibitory concentration, Alcaligenes sp., 2 strains, geometric mean when applicable): > 125 µg/mL
- MIC (Alcaligenes sp.; read-out: Minimum inhibitory concentration, Alcaligenes sp., 4 strains, geometric mean when applicable): > 105 µg/mL
- MIC (Alcaligenes sp.; read-out: Minimum inhibitory concentration, Alcaligenes sp., 5 strains, geometric mean when applicable): 1.3 µg/mL (≈ 3.28 µM)
- MBC (Enterobacter aerogenes; [5]): 250 µg/mL (≈ 631 µM)
- MIC (Enterobacter aerogenes; [5]): 125 µg/mL (≈ 315 µM)
- MBC (Enterobacter aerogenes; [6]): > 250 µg/mL
- MIC (Enterobacter aerogenes; [6]): 125 µg/mL (≈ 315 µM)
- MBC (Enterobacter aerogenes; [7]): > 250 µg/mL
- MIC (Enterobacter aerogenes; [7]): 250 µg/mL (≈ 631 µM)
- MBC (Enterobacter cloacae; [8]): 63 µg/mL (≈ 159 µM)
- MIC (Enterobacter cloacae; [8]): 32 µg/mL (≈ 80.7 µM)
- MBC (Enterobacter cloacae; [9]): > 250 µg/mL
- MIC (Enterobacter cloacae; [9]): 250 µg/mL (≈ 631 µM)
- MBC (Enterobacter cloacae; [10]): > 250 µg/mL
- MIC (Enterobacter cloacae; [10]): > 250 µg/mL
- MBC (Proteus rettgeri [1]; Proteus rettgeri strain 2): 2 µg/mL (≈ 5.04 µM)
- MIC (Proteus rettgeri [1]; Proteus rettgeri strain 2): 1 µg/mL (≈ 2.52 µM)
- MBC (Proteus rettgeri [1]; Proteus rettgeri strain 3): 250 µg/mL (≈ 631 µM)
- MIC (Proteus rettgeri [1]; Proteus rettgeri strain 3): 125 µg/mL (≈ 315 µM)
- MBC (Klebsiella pneumoniae [2]; [11]): 2 µg/mL (≈ 5.04 µM)
- MIC (Klebsiella pneumoniae [2]; [11]): 2 µg/mL (≈ 5.04 µM)
- MBC (Klebsiella pneumoniae [2]; [12]): 8 µg/mL (≈ 20.2 µM)
- MIC (Klebsiella pneumoniae [2]; [12]): 4 µg/mL (≈ 10.1 µM)
- MBC (Klebsiella pneumoniae [2]; [13]): 4 µg/mL (≈ 10.1 µM)
- MIC (Klebsiella pneumoniae [2]; [13]): 2 µg/mL (≈ 5.04 µM)
- MBC (Klebsiella pneumoniae [2]; [14]): 4 µg/mL (≈ 10.1 µM)
- MIC (Klebsiella pneumoniae [2]; [14]): 4 µg/mL (≈ 10.1 µM)
- MBC (Klebsiella pneumoniae [2]; [15]): 8 µg/mL (≈ 20.2 µM)
- MIC (Klebsiella pneumoniae [2]; [15]): 8 µg/mL (≈ 20.2 µM)
- MBC (Klebsiella pneumoniae [2]; [16]): 2 µg/mL (≈ 5.04 µM)
- MIC (Klebsiella pneumoniae [2]; [16]): 2 µg/mL (≈ 5.04 µM)
- MBC (Proteus mirabilis; [17]): 32 µg/mL (≈ 80.7 µM)
- MIC (Proteus mirabilis; [17]): 8 µg/mL (≈ 20.2 µM)
- MBC (Proteus mirabilis; [18]): 32 µg/mL (≈ 80.7 µM)
- MIC (Proteus mirabilis; [18]): 8 µg/mL (≈ 20.2 µM)
- MBC (Proteus mirabilis; [19]): 8 µg/mL (≈ 20.2 µM)
- MIC (Proteus mirabilis; [19]): 8 µg/mL (≈ 20.2 µM)
- MBC (Proteus mirabilis; [20]): 8 µg/mL (≈ 20.2 µM)
- MIC (Proteus mirabilis; [20]): 4 µg/mL (≈ 10.1 µM)
- MBC (Proteus mirabilis; [21]): 16 µg/mL (≈ 40.4 µM)
- MIC (Proteus mirabilis; [21]): 8 µg/mL (≈ 20.2 µM)
- MBC (Escherichia coli; [22]): 16 µg/mL (≈ 40.4 µM)
- MIC (Escherichia coli; [22]): 8 µg/mL (≈ 20.2 µM)
- MBC (Escherichia coli; [23]): 32 µg/mL (≈ 80.7 µM)
- MIC (Escherichia coli; [23]): 32 µg/mL (≈ 80.7 µM)
- MBC (Escherichia coli; [24]): 8 µg/mL (≈ 20.2 µM)
- MIC (Escherichia coli; [24]): 4 µg/mL (≈ 10.1 µM)
- MBC (Escherichia coli; [25]): 16 µg/mL (≈ 40.4 µM)
- MIC (Escherichia coli; [25]): 8 µg/mL (≈ 20.2 µM)
- MBC (Escherichia coli; [26]): 16 µg/mL (≈ 40.4 µM)
- MIC (Escherichia coli; [26]): 16 µg/mL (≈ 40.4 µM)
- MBC (Escherichia coli; [27]): 16 µg/mL (≈ 40.4 µM)
- MIC (Escherichia coli; [27]): 16 µg/mL (≈ 40.4 µM)
- MBC (Proteus vulgaris; Proteus vulgaris strain 1): 2 µg/mL (≈ 5.04 µM)
- MIC (Proteus vulgaris; Proteus vulgaris strain 1): 1 µg/mL (≈ 2.52 µM)
- MBC (Proteus vulgaris; Proteus vulgaris strain 2): 16 µg/mL (≈ 40.4 µM)
- MIC (Proteus vulgaris; Proteus vulgaris strain 2): 8 µg/mL (≈ 20.2 µM)
- MBC (Proteus vulgaris; Proteus vulgaris strain 4): 16 µg/mL (≈ 40.4 µM)
- MIC (Proteus vulgaris; Proteus vulgaris strain 4): 8 µg/mL (≈ 20.2 µM)
- half-life (in vivo): 11 min
- Cmax (in vivo; 20 mg/kg): 17000 ng/mL
- MIC (Arizona hinshawii): 2.8 µg/mL (≈ 7.06 µM)
- percent of strains inhibited (Providencia stuartii): negligible
- MIC (Klebsiella pneumoniae [3]; read-out: Minimum Inhibitory Concentration, Klebsiella pneumoniae strain 1, A, Inoculum of 10^2 organisms): 2 µg/mL (≈ 5.04 µM)
- MIC (Klebsiella pneumoniae [3]; read-out: Minimum Inhibitory Concentration, Klebsiella pneumoniae strain 1, B, Inoculum of 10^6 organisms): 8 µg/mL (≈ 20.2 µM)
- MIC (Klebsiella pneumoniae [3]; read-out: Minimum Inhibitory Concentration, Klebsiella pneumoniae strain 2, A, Inoculum of 10^2 organisms): 2 µg/mL (≈ 5.04 µM)
- MIC (Klebsiella pneumoniae [3]; read-out: Minimum Inhibitory Concentration, Klebsiella pneumoniae strain 2, B, Inoculum of 10^6 organisms): 32 µg/mL (≈ 80.7 µM)
- MIC (Klebsiella pneumoniae [3]; read-out: Minimum Inhibitory Concentration, Klebsiella pneumoniae strain 3, A, Inoculum of 10^2 organisms): 2 µg/mL (≈ 5.04 µM)
- MIC (Klebsiella pneumoniae [3]; read-out: Minimum Inhibitory Concentration, Klebsiella pneumoniae strain 3, B, Inoculum of 10^6 organisms): 16 µg/mL (≈ 40.4 µM)
- MIC (Klebsiella pneumoniae [3]; read-out: Minimum Inhibitory Concentration, Klebsiella pneumoniae strain 4, A, Inoculum of 10^2 organisms): 2 µg/mL (≈ 5.04 µM)
- MIC (Klebsiella pneumoniae [3]; read-out: Minimum Inhibitory Concentration, Klebsiella pneumoniae strain 4, B, Inoculum of 10^6 organisms): 8 µg/mL (≈ 20.2 µM)
- MIC (Klebsiella pneumoniae [3]; read-out: Minimum Inhibitory Concentration, Klebsiella pneumoniae strain 5, A, Inoculum of 10^2 organisms): 2 µg/mL (≈ 5.04 µM)
- MIC (Klebsiella pneumoniae [3]; read-out: Minimum Inhibitory Concentration, Klebsiella pneumoniae strain 5, B, Inoculum of 10^6 organisms): 32 µg/mL (≈ 80.7 µM)
- MIC (Klebsiella pneumoniae [3]; read-out: Minimum Inhibitory Concentration, Klebsiella pneumoniae strain 6, A, Inoculum of 10^2 organisms): 1 µg/mL (≈ 2.52 µM)
- MIC (Klebsiella pneumoniae [3]; read-out: Minimum Inhibitory Concentration, Klebsiella pneumoniae strain 6, B, Inoculum of 10^6 organisms): 16 µg/mL (≈ 40.4 µM)
- MIC (Proteus rettgeri [4]; read-out: Minimum Inhibitory Concentration, Proteus rettgeri strain 1, A, Inoculum of 10^2 organisms): 0.25 µg/mL (≈ 0.631 µM)
- MIC (Proteus rettgeri [4]; read-out: Minimum Inhibitory Concentration, Proteus rettgeri strain 1, B, Inoculum of 10^6 organisms): 250 µg/mL (≈ 631 µM)
- MIC (Proteus rettgeri [4]; read-out: Minimum Inhibitory Concentration, Proteus rettgeri strain 2, A, Inoculum of 10^2 organisms): 0.25 µg/mL (≈ 0.631 µM)
- MIC (Proteus rettgeri [4]; read-out: Minimum Inhibitory Concentration, Proteus rettgeri strain 2, B, Inoculum of 10^6 organisms): > 250 µg/mL
- MIC (Proteus rettgeri [4]; read-out: Minimum Inhibitory Concentration, Proteus rettgeri strain 3, A, Inoculum of 10^2 organisms): 32 µg/mL (≈ 80.7 µM)
- MIC (Proteus rettgeri [4]; read-out: Minimum Inhibitory Concentration, Proteus rettgeri strain 3, B, Inoculum of 10^6 organisms): > 250 µg/mL
